{"source": "patent US20240382629A1", "about": "“HETEROBIVALENT AND HOMOBIVALENT AGENTS TARGETING FIBROBLAST ACTIVATION PROTEIN ALPHA AND/OR PROSTATE-SPECIFIC MEMBRANE ANTIGEN” (The Johns Hopkins University, priority 2021, published 2024)", "assay": "Biodistribution of [^18F]JHU1221785 with cold FAPI-04 blocker", "type": "in vivo, mouse", "details": "for % ID/g Bladder / % ID/g Blood / % ID/g Brain / % ID/g Fat / % ID/g Heart / % ID/g Kidney / % ID/g Large intestine / % ID/g Lung / % ID/g Muscle / % ID/g Pancreas / % ID/g Salivary gland / % ID/g Small intestine / % ID/g Spleen / % ID/g Stomach / % ID/g Tumor: single mouse", "key": {"[1]": {"details": "+ Blocker Cold FAPI-04 (10 nmole), 60 min"}}, "note": "Values joined by “and” are separate entries in the source; they are usually repeats but may differ in a detail not shown here. Equal entries are not always repeated.", "data": [{"smiles": "N#C[C@@H]1CCCN1C(=O)CNC(=O)c1ccnc2ccc(OCCCNC(=O)[C@@H](CC(=O)O)NC(=O)[C@@H](CC(=O)O)NC(=O)c3ccc([18F])nc3)cc12", "note": "[[^18F]JHU1221785]", "values": [{"measurement": "% ID/g Mean Bladder", "setting": "30 min", "result": 2.81, "unit": "% ID/g"}, {"measurement": "% ID/g Bladder", "setting": "30 min", "result": "0.93 % ID/g and 4.69 % ID/g"}, {"measurement": "% ID/g Mean Bladder", "setting": "60 min", "result": 0.84, "unit": "% ID/g"}, {"measurement": "% ID/g Bladder", "setting": "60 min", "result": "0.76 % ID/g and 0.92 % ID/g"}, {"measurement": "% ID/g Mean Bladder", "setting": "[1]", "result": 0.45, "unit": "% ID/g"}, {"measurement": "% ID/g Bladder", "setting": "[1]", "result": "0.23 % ID/g and 0.67 % ID/g"}, {"measurement": "% ID/g Mean Blood", "setting": "30 min", "result": 4.94, "unit": "% ID/g"}, {"measurement": "% ID/g Blood", "setting": "30 min", "result": "5.98 % ID/g and 3.90 % ID/g"}, {"measurement": "% ID/g Mean Blood", "setting": "60 min", "result": 3.57, "unit": "% ID/g"}, {"measurement": "% ID/g Blood", "setting": "60 min", "result": "2.56 % ID/g and 4.57 % ID/g"}, {"measurement": "% ID/g Mean Blood", "setting": "[1]", "result": 4.68, "unit": "% ID/g"}, {"measurement": "% ID/g Blood", "setting": "[1]", "result": "0.11 % ID/g and 9.26 % ID/g"}, {"measurement": "% ID/g Mean Brain", "setting": "30 min", "result": 0.14, "unit": "% ID/g"}, {"measurement": "% ID/g Brain", "setting": "30 min", "result": "0.14 % ID/g and 0.15 % ID/g"}, {"measurement": "% ID/g Mean Brain", "setting": "60 min", "result": 0.10, "unit": "% ID/g"}, {"measurement": "% ID/g Brain", "setting": "60 min", "result": "0.09 % ID/g and 0.12 % ID/g"}, {"measurement": "% ID/g Mean Brain", "setting": "[1]", "result": 0.03, "unit": "% ID/g"}, {"measurement": "% ID/g Brain", "setting": "[1]", "result": "0.02 % ID/g and 0.04 % ID/g"}, {"measurement": "% ID/g Mean Fat", "setting": "30 min", "result": 0.20, "unit": "% ID/g"}, {"measurement": "% ID/g Fat", "setting": "30 min", "result": "0.21 % ID/g and 0.19 % ID/g"}, {"measurement": "% ID/g Mean Fat", "setting": "60 min", "result": 0.22, "unit": "% ID/g"}, {"measurement": "% ID/g Fat", "setting": "60 min", "result": "0.22 % ID/g and 0.21 % ID/g"}, {"measurement": "% ID/g Mean Fat", "setting": "[1]", "result": 0.12, "unit": "% ID/g"}, {"measurement": "% ID/g Fat", "setting": "[1]", "result": "0.03 % ID/g and 0.21 % ID/g"}, {"measurement": "% ID/g Mean Femur", "setting": "30 min", "result": 2.61, "unit": "% ID/g"}, {"measurement": "% ID/g Mean Femur", "setting": "60 min", "result": 2.07, "unit": "% ID/g"}, {"measurement": "% ID/g Mean Femur", "setting": "[1]", "result": 1.51, "unit": "% ID/g"}, {"measurement": "% ID/g Mean Heart", "setting": "30 min", "result": 2.26, "unit": "% ID/g"}, {"measurement": "% ID/g Heart", "setting": "30 min", "result": "2.51 % ID/g and 2.01 % ID/g"}, {"measurement": "% ID/g Mean Heart", "setting": "60 min", "result": 1.56, "unit": "% ID/g"}, {"measurement": "% ID/g Heart", "setting": "60 min", "result": "1.38 % ID/g and 1.73 % ID/g"}, {"measurement": "% ID/g Mean Heart", "setting": "[1]", "result": 0.07, "unit": "% ID/g"}, {"measurement": "% ID/g Heart", "setting": "[1]", "result": "0.06 % ID/g and 0.07 % ID/g"}, {"measurement": "% ID/g Mean Kidney", "setting": "30 min", "result": 2.47, "unit": "% ID/g"}, {"measurement": "% ID/g Kidney", "setting": "30 min", "result": "1.60 % ID/g and 3.33 % ID/g"}, {"measurement": "% ID/g Mean Kidney", "setting": "60 min", "result": 0.91, "unit": "% ID/g"}, {"measurement": "% ID/g Kidney", "setting": "60 min", "result": "0.79 % ID/g and 1.04 % ID/g"}, {"measurement": "% ID/g Mean Kidney", "setting": "[1]", "result": 0.46, "unit": "% ID/g"}, {"measurement": "% ID/g Kidney", "setting": "[1]", "result": "0.41 % ID/g and 0.51 % ID/g"}, {"measurement": "% ID/g Mean Large intestine", "setting": "30 min", "result": 0.72, "unit": "% ID/g"}, {"measurement": "% ID/g Large intestine", "setting": "30 min", "result": "0.58 % ID/g and 0.86 % ID/g"}, {"measurement": "% ID/g Mean Large intestine", "setting": "60 min", "result": 0.69, "unit": "% ID/g"}, {"measurement": "% ID/g Large intestine", "setting": "60 min", "result": "0.61 % ID/g and 0.78 % ID/g"}, {"measurement": "% ID/g Mean Large intestine", "setting": "[1]", "result": 0.20, "unit": "% ID/g"}, {"measurement": "% ID/g Large intestine", "setting": "[1]", "result": "0.08 % ID/g and 0.33 % ID/g"}, {"measurement": "% ID/g Mean Liver", "setting": "30 min", "result": 7.32, "unit": "% ID/g"}, {"measurement": "% ID/g Mean Liver", "setting": "60 min", "result": 7.84, "unit": "% ID/g"}, {"measurement": "% ID/g Mean Liver", "setting": "[1]", "result": 9.89, "unit": "% ID/g"}, {"measurement": "% ID/g Mean Lung", "setting": "30 min", "result": 2.65, "unit": "% ID/g"}, {"measurement": "% ID/g Lung", "setting": "30 min", "result": "2.77 % ID/g and 2.53 % ID/g"}, {"measurement": "% ID/g Mean Lung", "setting": "60 min", "result": 2.18, "unit": "% ID/g"}, {"measurement": "% ID/g Lung", "setting": "60 min", "result": "1.70 % ID/g and 2.65 % ID/g"}, {"measurement": "% ID/g Mean Lung", "setting": "[1]", "result": 0.17, "unit": "% ID/g"}, {"measurement": "% ID/g Lung", "setting": "[1]", "result": "0.13 % ID/g and 0.20 % ID/g"}, {"measurement": "% ID/g Mean Muscle", "setting": "30 min", "result": 0.96, "unit": "% ID/g"}, {"measurement": "% ID/g Muscle", "setting": "30 min", "result": "0.81 % ID/g and 1.12 % ID/g"}, {"measurement": "% ID/g Mean Muscle", "setting": "60 min", "result": 0.98, "unit": "% ID/g"}, {"measurement": "% ID/g Muscle", "setting": "60 min", "result": "1.06 % ID/g and 0.89 % ID/g"}, {"measurement": "% ID/g Mean Muscle", "setting": "[1]", "result": 0.06, "unit": "% ID/g"}, {"measurement": "% ID/g Muscle", "setting": "[1]", "result": "0.04 % ID/g and 0.07 % ID/g"}, {"measurement": "% ID/g Mean Pancreas", "setting": "30 min", "result": 2.31, "unit": "% ID/g"}, {"measurement": "% ID/g Pancreas", "setting": "30 min", "result": "1.92 % ID/g and 2.71 % ID/g"}, {"measurement": "% ID/g Mean Pancreas", "setting": "60 min", "result": 2.07, "unit": "% ID/g"}, {"measurement": "% ID/g Pancreas", "setting": "60 min", "result": "1.96 % ID/g and 2.17 % ID/g"}, {"measurement": "% ID/g Mean Pancreas", "setting": "[1]", "result": 0.13, "unit": "% ID/g"}, {"measurement": "% ID/g Pancreas", "setting": "[1]", "result": "0.05 % ID/g and 0.22 % ID/g"}, {"measurement": "% ID/g Mean Salivary gland", "setting": "30 min", "result": 2.93, "unit": "% ID/g"}, {"measurement": "% ID/g Salivary gland", "setting": "30 min", "result": "2.81 % ID/g and 3.05 % ID/g"}, {"measurement": "% ID/g Mean Salivary gland", "setting": "60 min", "result": 3.45, "unit": "% ID/g"}, {"measurement": "% ID/g Salivary gland", "setting": "60 min", "result": "2.17 % ID/g and 4.73 % ID/g"}, {"measurement": "% ID/g Mean Salivary gland", "setting": "[1]", "result": 0.05, "unit": "% ID/g"}, {"measurement": "% ID/g Salivary gland", "setting": "[1]", "result": "0.04 % ID/g and 0.06 % ID/g"}, {"measurement": "% ID/g Mean Small intestine", "setting": "30 min", "result": 2.49, "unit": "% ID/g"}, {"measurement": "% ID/g Small intestine", "setting": "30 min", "result": "2.60 % ID/g and 2.38 % ID/g"}, {"measurement": "% ID/g Mean Small intestine", "setting": "60 min", "result": 1.83, "unit": "% ID/g"}, {"measurement": "% ID/g Small intestine", "setting": "60 min", "result": "1.65 % ID/g and 2.01 % ID/g"}, {"measurement": "% ID/g Mean Small intestine", "setting": "[1]", "result": 3.54, "unit": "% ID/g"}, {"measurement": "% ID/g Small intestine", "setting": "[1]", "result": "0.88 % ID/g and 6.19 % ID/g"}, {"measurement": "% ID/g Mean Spleen", "setting": "30 min", "result": 1.00, "unit": "% ID/g"}, {"measurement": "% ID/g Spleen", "setting": "30 min", "result": "1.03 % ID/g and 0.97 % ID/g"}, {"measurement": "% ID/g Mean Spleen", "setting": "60 min", "result": 0.93, "unit": "% ID/g"}, {"measurement": "% ID/g Spleen", "setting": "60 min", "result": "0.78 % ID/g and 1.09 % ID/g"}, {"measurement": "% ID/g Mean Spleen", "setting": "[1]", "result": 0.16, "unit": "% ID/g"}, {"measurement": "% ID/g Spleen", "setting": "[1]", "result": "0.08 % ID/g and 0.25 % ID/g"}, {"measurement": "% ID/g Mean Stomach", "setting": "30 min", "result": 0.82, "unit": "% ID/g"}, {"measurement": "% ID/g Stomach", "setting": "30 min", "result": "0.72 % ID/g and 0.92 % ID/g"}, {"measurement": "% ID/g Mean Stomach", "setting": "60 min", "result": 0.71, "unit": "% ID/g"}, {"measurement": "% ID/g Stomach", "setting": "60 min", "result": "0.60 % ID/g and 0.81 % ID/g"}, {"measurement": "% ID/g Mean Stomach", "setting": "[1]", "result": 0.16, "unit": "% ID/g"}, {"measurement": "% ID/g Stomach", "setting": "[1]", "result": "0.09 % ID/g and 0.23 % ID/g"}, {"measurement": "% ID/g Mean Tumor", "setting": "30 min", "result": 1.24, "unit": "% ID/g"}, {"measurement": "% ID/g Tumor", "setting": "30 min", "result": "1.14 % ID/g and 1.34 % ID/g"}, {"measurement": "% ID/g Mean Tumor", "setting": "60 min", "result": 2.23, "unit": "% ID/g"}, {"measurement": "% ID/g Tumor", "setting": "60 min", "result": "2.59 % ID/g and 1.47 % ID/g"}, {"measurement": "% ID/g Mean Tumor", "setting": "[1]", "result": 0.10, "unit": "% ID/g"}, {"measurement": "% ID/g Tumor", "setting": "[1]", "result": "0.08 % ID/g and 0.11 % ID/g"}]}]}
